Drawing on patent publication US12559506B2, “Indazole based compounds and associated methods of use” (Arvinas Operations, Inc., priority 2021, dated 2026), this text covers DC50 and Dmax for 16 compounds.

Read-outs that look alike come from different tables or passages of the source.

In this assay the target is T1, LRRK2 (endogenous, HiBit tagged) (Homo sapiens, UniProt Q5S007).
T1 construct: endogenous in cells; host or cells: HEK293 cells with HiBit knock-in at the endogenous LRRK2 locus, stably expressing firefly luciferase
The assay can be described thus: Endogenous LRRK2 degradation assay, endogenous gene C-terminally HiBit-tagged in HEK293 cells (Nano-Glo Dual Luciferase). Particulars: endogenous HiBit-tagged LRRK2 in HEK293 cells, 24 hours treatment. Format: cell-based. The method in brief: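 LRRK2-HiBit quantified via Nano-Glo Dual Luciferase in HEK293 knock-in cells co-expressing firefly luciferase, after 24 h exposure to compound (1 μM final top, 1:3, 11 points). Values normalised to DMSO median per plate and curve-fitted; Alamar Blue viability run alongside.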

Where [1] appears, read: read-out: **Endogenous WT Dmax (%).

T1 sequence (Q5S007 whole entry): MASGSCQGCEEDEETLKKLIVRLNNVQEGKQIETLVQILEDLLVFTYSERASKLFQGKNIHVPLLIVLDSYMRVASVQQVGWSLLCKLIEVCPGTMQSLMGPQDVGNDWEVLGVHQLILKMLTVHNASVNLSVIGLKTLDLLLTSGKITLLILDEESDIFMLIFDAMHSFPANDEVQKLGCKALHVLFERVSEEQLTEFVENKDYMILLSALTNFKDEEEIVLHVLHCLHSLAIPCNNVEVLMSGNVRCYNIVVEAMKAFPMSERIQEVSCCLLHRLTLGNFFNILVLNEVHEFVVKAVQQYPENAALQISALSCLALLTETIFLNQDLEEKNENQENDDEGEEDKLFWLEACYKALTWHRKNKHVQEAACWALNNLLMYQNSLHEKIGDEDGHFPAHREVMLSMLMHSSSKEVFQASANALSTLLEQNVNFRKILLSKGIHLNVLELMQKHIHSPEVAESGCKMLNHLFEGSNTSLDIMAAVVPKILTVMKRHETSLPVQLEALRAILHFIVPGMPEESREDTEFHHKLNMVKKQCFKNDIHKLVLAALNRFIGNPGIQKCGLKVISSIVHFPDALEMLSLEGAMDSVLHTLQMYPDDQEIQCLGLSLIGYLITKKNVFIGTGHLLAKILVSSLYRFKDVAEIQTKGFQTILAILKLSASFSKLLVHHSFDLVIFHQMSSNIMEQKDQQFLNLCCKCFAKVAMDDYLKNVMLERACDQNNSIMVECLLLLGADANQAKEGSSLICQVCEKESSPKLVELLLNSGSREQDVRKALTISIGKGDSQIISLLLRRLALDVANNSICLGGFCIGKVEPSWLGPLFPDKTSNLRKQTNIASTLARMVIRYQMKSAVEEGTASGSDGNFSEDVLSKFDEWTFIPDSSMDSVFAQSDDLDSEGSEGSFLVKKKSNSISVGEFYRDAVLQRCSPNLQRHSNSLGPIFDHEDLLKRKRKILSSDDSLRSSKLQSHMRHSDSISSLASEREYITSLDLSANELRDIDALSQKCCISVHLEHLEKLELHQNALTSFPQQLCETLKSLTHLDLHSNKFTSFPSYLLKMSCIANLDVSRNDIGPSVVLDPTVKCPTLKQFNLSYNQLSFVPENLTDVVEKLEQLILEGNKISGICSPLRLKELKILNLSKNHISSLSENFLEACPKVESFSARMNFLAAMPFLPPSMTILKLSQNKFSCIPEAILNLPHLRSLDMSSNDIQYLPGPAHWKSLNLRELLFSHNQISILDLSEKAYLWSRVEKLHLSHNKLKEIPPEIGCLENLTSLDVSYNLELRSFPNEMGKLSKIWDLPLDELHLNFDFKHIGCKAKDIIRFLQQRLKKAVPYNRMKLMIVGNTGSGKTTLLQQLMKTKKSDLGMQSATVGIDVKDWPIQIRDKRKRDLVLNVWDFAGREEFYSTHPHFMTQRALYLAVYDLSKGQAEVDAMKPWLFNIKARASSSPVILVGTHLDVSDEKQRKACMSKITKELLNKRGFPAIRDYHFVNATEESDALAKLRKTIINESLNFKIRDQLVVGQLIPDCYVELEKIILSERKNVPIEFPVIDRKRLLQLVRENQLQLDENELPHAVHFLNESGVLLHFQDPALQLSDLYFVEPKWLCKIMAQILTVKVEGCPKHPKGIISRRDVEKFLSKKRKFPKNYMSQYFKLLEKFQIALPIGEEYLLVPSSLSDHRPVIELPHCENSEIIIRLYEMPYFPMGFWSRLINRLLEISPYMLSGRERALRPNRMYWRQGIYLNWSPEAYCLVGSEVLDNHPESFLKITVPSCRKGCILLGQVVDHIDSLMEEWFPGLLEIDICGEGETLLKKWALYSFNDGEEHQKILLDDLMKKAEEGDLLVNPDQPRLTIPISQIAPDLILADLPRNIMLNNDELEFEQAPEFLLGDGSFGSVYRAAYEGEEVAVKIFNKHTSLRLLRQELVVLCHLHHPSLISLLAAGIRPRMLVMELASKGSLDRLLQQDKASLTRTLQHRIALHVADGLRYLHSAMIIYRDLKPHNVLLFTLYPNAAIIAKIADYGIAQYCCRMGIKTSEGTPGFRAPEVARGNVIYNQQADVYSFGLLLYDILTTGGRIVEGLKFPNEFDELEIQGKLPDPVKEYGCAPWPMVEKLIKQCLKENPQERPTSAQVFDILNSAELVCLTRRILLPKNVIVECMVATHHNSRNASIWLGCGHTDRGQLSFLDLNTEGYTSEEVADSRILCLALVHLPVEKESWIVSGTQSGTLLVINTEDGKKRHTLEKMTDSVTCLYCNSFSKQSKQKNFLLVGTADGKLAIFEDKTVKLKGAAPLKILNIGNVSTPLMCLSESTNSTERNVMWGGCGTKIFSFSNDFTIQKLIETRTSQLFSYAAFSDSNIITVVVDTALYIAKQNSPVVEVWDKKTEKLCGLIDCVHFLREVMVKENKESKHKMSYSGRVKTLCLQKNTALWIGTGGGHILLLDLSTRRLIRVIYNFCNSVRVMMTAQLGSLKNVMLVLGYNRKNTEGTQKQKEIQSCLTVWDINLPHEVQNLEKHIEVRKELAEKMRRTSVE

One may read the DC50 as the midpoint of the concentration-degradation curve. As usually defined, the Dmax is the largest share of the target that was removed. Turning to `CC1(Oc2ccc3n[nH]c(-c4cc(N5CCC(CN6C[C@H]7C[C@@H]6CN7CC6CCN(c7ccc8c(c7F)CN(C7CCC(=O)NC7=O)C8=O)CC6)CC5)ncn4)c3c2)CC1` (stereo partly drawn) [Compound 226, 3-[4-fluoro-5-(4-{[(1R,4R)-5-[(1-{6-[5-(1-methylcyclopropoxy)-2H-indazol-3-yl]pyrimidin-4-yl}piperidin-4-yl)methyl]-2,5-diazabicyclo[2.2.1]heptan-2-yl]methyl}piperidin-1-yl)-1-oxo-2,3-dihydro-1H-isoindol-2-yl]piperidine-2,6-dione], the DC50 (read-out: Endogenous WT DC50) was under 10 nM. For the same compound, the Dmax (read-out: Endogenous WT Dmax) is 50 to 70%.
In the same order, the values of `COc1c(N2CCC(O[C@H]3CC[C@H](CN4CCN(c5cc(-c6n[nH]c7ccc(OC8(C)CC8)cc67)ncn5)CC4(C)C)CC3)CC2)ccc2c1CN(C1CCC(=O)NC1=O)C2=O` (some centres unmarked) [Compound 382, 3-[4-methoxy-1-oxo-5-(4-{[(1r,4r)-4-[(2,2-dimethyl-4-{6-[5-(1-methylcyclopropoxy)-1H-indazol-3-yl]pyrimidin-4-yl}piperazin-1-yl)methyl]cyclohexyl]oxy}piperidin-1-yl)-2,3-dihydro-1H-isoindol-2-yl]piperidine-2,6-dione] are 10 to 50 nM and 50 to 70%.
Turning to `CC1(Oc2cc3c(-c4cc(N5CCN(C[C@@H]6CCN(CC7CCN(c8ccc9c(c8F)CN(C8CCC(=O)NC8=O)C9=O)CC7)C[C@@H]6F)CC5)ncn4)n[nH]c3cc2F)CC1` (some centres unmarked) [Compound 299, 3-[4-fluoro-5-(4-{[(3r,4s)-3-fluoro-4-[(4-{6-[6-fluoro-5-(1-methylcyclopropoxy)-1H-indazol-3-yl]pyrimidin-4-yl}piperazin-1-yl)methyl]piperidin-1-yl]methyl}piperidin-1-yl)-1-oxo-2,3-dihydro-1H-isoindol-2-yl]piperidine-2,6-dione], under setting [1], the Dmax is 50 to 70%. Moreover, where the note is “read-out: *Endogenous WT DC50”, the DC50 is under 10 nM.
In the case of `CC1(Oc2ccc3[nH]nc(-c4cc(N5CCC(O[C@H]6CC[C@H](CN7CCN(c8ccc9c(c8F)CN(C8CCC(=O)NC8=O)C9=O)C(C)(C)C7)CC6)CC5)ncn4)c3c2)CC1` (some centres unmarked) [Compound 378, 3-[5-(2,2-dimethyl-4-{[(1r,4r)-4-[(1-{6-[5-(1-methylcyclopropoxy)-1H-indazol-3-yl]pyrimidin-4-yl}piperidin-4-yl)oxy]cyclohexyl]methyl}piperazin-1-yl)-4-fluoro-1-oxo-2,3-dihydro-1H-isoindol-2-yl]piperidine-2,6-dione], the DC50 (read-out: Endogenous WT DC50) is under 10 nM. Moreover, where the note is “read-out: Endogenous WT Dmax”, the Dmax lay in the range of 50 to 70%.
For `COc1c(N2CCC(O[C@H]3CC[C@H](CN4CCN(c5cc(-c6n[nH]c7ccc(OC8(C)CC8)cc67)nc(C)n5)CC4)CC3)CC2)ccc2c1CN(C1CCC(=O)NC1=O)C2=O` (some centres unmarked) [Compound 367, 3-[4-methoxy-1-oxo-5-(4-{[(1r,4r)-4-[(4-{2-methyl-6-[5-(1-methylcyclopropoxy)-1H-indazol-3-yl]pyrimidin-4-yl}piperazin-1-yl)methyl]cyclohexyl]oxy}piperidin-1-yl)-2,3-dihydro-1H-isoindol-2-yl]piperidine-2,6-dione], under “read-out: Endogenous WT DC50”, the DC50 is under 10 nM. Where the note is “read-out: Endogenous WT Dmax”, the greatest degradation seen (Dmax) fell in the range of 50 to 70%.
As for `CC1(Oc2ccc3[nH]nc(-c4cc(N5CCC(CN6C7CC6CN(CC6CCN(c8ccc9c(c8F)CN(C8CCC(=O)NC8=O)C9=O)CC6)C7)CC5)ncn4)c3c2)CC1` (centres unmarked) [Compound 237, 3-{4-fluoro-5-[4-({6-[(1-{6-[5-(1-methylcyclopropoxy)-1H-indazol-3-yl]pyrimidin-4-yl}piperidin-4-yl)methyl]-3,6-diazabicyclo[3.1.1]heptan-3-yl}methyl)piperidin-1-yl]-1-oxo-2,3-dihydro-1H-isoindol-2-yl}piperidine-2,6-dione], under “read-out: Endogenous WT DC50”, the DC50 was under 10 nM. In addition, for the setting “read-out: Endogenous WT Dmax”, the Dmax is at least 70%.
`COc1c(N2CC3(CCN(CC4CCN(c5cc(-c6n[nH]c7ccc(OC8(C)CC8)cc67)ncn5)CC4)CC3(F)F)C2)ccc2c1CN(C1CCC(=O)NC1=O)C2=O` (centres unmarked) [Compound 332, 3-(5-{5,5-difluoro-7-[(1-{6-[5-(1-methylcyclopropoxy)-1H-indazol-3-yl]pyrimidin-4-yl}piperidin-4-yl)methyl]-2,7-diazaspiro[3.5]nonan-2-yl}-4-methoxy-1-oxo-2,3-dihydro-1H-isoindol-2-yl)piperidine-2,6-dione]: the Dmax under setting [1] fell in the range of 50 to 70%. For the same compound, the DC50 (read-out: *Endogenous WT DC50) was under 10 nM.
In the case of `COc1c(N2CCC(O[C@H]3CCN(CC4CCN(c5cc(-c6n[nH]c7ccc(OC8(C)CC8)cc67)ncn5)CC4)C(C)(C)C3)CC2)ccc2c1CN(C1CCC(=O)NC1=O)C2=O` (stereo partly drawn) [Compound 316, 3-[5-(4-{[(4S)-2,2-dimethyl-1-[(1-{6-[5-(1-methylcyclopropoxy)-1H-indazol-3-yl]pyrimidin-4-yl}piperidin-4-yl)methyl]piperidin-4-yl]oxy}piperidin-1-yl)-4-methoxy-1-oxo-2,3-dihydro-1H-isoindol-2-yl]piperidine-2,6-dione], the Dmax under setting [1] was in the range of 50 to 70%. Further, the DC50 (read-out: *Endogenous WT DC50) is under 10 nM.
For the compound `Cc1cc(-c2n[nH]c3ccc(OC4(C)CC4)cc23)cc(N2CCN(C[C@H]3CC[C@H](OC4CCN(c5ccc6c(c5F)CN(C5CCC(=O)NC5=O)C6=O)CC4)CC3)CC2)n1` (some centres unmarked) [Compound 379, 3-[4-fluoro-1-oxo-5-(4-{[(1r,4r)-4-[(4-{6-methyl-4-[5-(1-methylcyclopropoxy)-1H-indazol-3-yl]pyridin-2-yl}piperazin-1-yl)methyl]cyclohexyl]oxy}piperidin-1-yl)-2,3-dihydro-1H-isoindol-2-yl]piperidine-2,6-dione], the DC50 (read-out: Endogenous WT DC50) was under 10 nM. Besides, the Dmax (read-out: Endogenous WT Dmax) fell in the range of 50 to 70%.
Turning to `COc1c(N2CCC(CN3CCN(CC4CCN(c5cc(-c6n[nH]c7cnc(OC8(C)CC8)cc67)ncn5)CC4)[C@H](C)C3)CC2)ccc2c1CN(C1CCC(=O)NC1=O)C2=O` (stereo partly drawn) [Compound 257, 3-[4-methoxy-5-(4-{[(3R)-3-methyl-4-[(1-{6-[5-(1-methylcyclopropoxy)-1H-pyrazolo[3,4-c]pyridin-3-yl]pyrimidin-4-yl}piperidin-4-yl)methyl]piperazin-1-yl]methyl}piperidin-1-yl)-1-oxo-2,3-dihydro-1H-isoindol-2-yl]piperidine-2,6-dione], under setting [1], the Dmax was in the range of 50 to 70%. In addition, the DC50 (read-out: *Endogenous WT DC50) is under 10 nM.
In the case of `CC1(Oc2ccc3n[nH]c(-c4cc(N5CCN(CC6(F)CN(CC7CCN(c8ccc9c(c8F)CN(C8CCC(=O)NC8=O)C9=O)CC7)C6)CC5)ncn4)c3c2)CC1` (centres unmarked) [Compound 306, 3-{4-fluoro-5-[4-({3-fluoro-3-[(4-{6-[5-(1-methylcyclopropoxy)-2H-indazol-3-yl]pyrimidin-4-yl}piperazin-1-yl)methyl]azetidin-1-yl}methyl)piperidin-1-yl]-1-oxo-2,3-dihydro-1H-isoindol-2-yl}piperidine-2,6-dione], under setting [1], the Dmax fell in the range of 50 to 70%. For the same compound, the DC50 (read-out: *Endogenous WT DC50) is under 10 nM.
In the same order, the values of `CC1(Oc2ccc3n[nH]c(-c4cc(N5CCN(C[C@H]6C[C@H](CN7CCN(c8ccc9c(c8F)CN(C8CCC(=O)NC8=O)C9=O)CC7)C6)CC5)ncn4)c3c2)CC1` (some centres unmarked) [Compound 334, 3-[4-fluoro-1-oxo-5-(4-{[(1r,3r)-3-[(4-{6-[5-(1-methylcyclopropoxy)-2H-indazol-3-yl]pyrimidin-4-yl}piperazin-1-yl)methyl]cyclobutyl]methyl}piperazin-1-yl)-2,3-dihydro-1H-isoindol-2-yl]piperidine-2,6-dione] are 50 to 70% and under 10 nM.
The corresponding values for `COc1c(N2CCC(CN3CCN(CC4CCN(c5cc(-c6n[nH]c7cnc(OC8(C)CC8)cc67)ncn5)CC4)CC3(C)C)CC2)ccc2c1CN(C1CCC(=O)NC1=O)C2=O` (centres unmarked) [Compound 277, 3-{5-[4-({2,2-dimethyl-4-[(1-{6-[5-(1-methylcyclopropoxy)-1H-pyrazolo[3,4-c]pyridin-3-yl]pyrimidin-4-yl}piperidin-4-yl)methyl]piperazin-1-yl}methyl)piperidin-1-yl]-4-methoxy-1-oxo-2,3-dihydro-1H-isoindol-2-yl}piperidine-2,6-dione] are 50 to 70% and under 10 nM.
The corresponding values for `COc1c(N2CCC(CN3CCN(CC4CCN(c5cc(-c6n[nH]c7cc(F)c(OC8(C)CC8)cc67)ncn5)CC4)C(C)(C)C3)CC2)ccc2c1CN(C1CCC(=O)NC1=O)C2=O` (centres unmarked) [Compound 278, 3-{5-[4-({4-[(1-{6-[6-fluoro-5-(1-methylcyclopropoxy)-1H-indazol-3-yl]pyrimidin-4-yl}piperidin-4-yl)methyl]-3,3-dimethylpiperazin-1-yl}methyl)piperidin-1-yl]-4-methoxy-1-oxo-2,3-dihydro-1H-isoindol-2-yl}piperidine-2,6-dione] are 50 to 70% and under 10 nM.
As for `CC1(Oc2ccc3[nH]nc(-c4cc(N5CCC(O[C@H]6CC[C@H](CN7CCN(c8ccc9c(c8Cl)CN(C8CCC(=O)NC8=O)C9=O)CC7)CC6)CC5)ncn4)c3c2)CC1` (some centres unmarked) [Compound 249, 3-[4-chloro-1-oxo-5-(4-{[(1r,4r)-4-[(1-{6-[5-(1-methylcyclopropoxy)-1H-indazol-3-yl]pyrimidin-4-yl}piperidin-4-yl)oxy]cyclohexyl]methyl}piperazin-1-yl)-2,3-dihydro-1H-isoindol-2-yl]piperidine-2,6-dione], for the setting “read-out: Endogenous WT DC50”, the 50% degradation concentration (DC50) is under 10 nM. Further, the Dmax (read-out: Endogenous WT Dmax) was 50 to 70%.
For the compound `COc1c(N2CCN(C[C@H]3CC[C@H](CN4CCN(c5cc(-c6n[nH]c7ccc(OC8(C)CC8)cc67)ncn5)CC4)CC3)CC2)ccc2c1CN(C1CCC(=O)NC1=O)C2=O` (some centres unmarked) [Compound 265, 3-[4-methoxy-1-oxo-5-(4-{[(1r,4r)-4-[(4-{6-[5-(1-methylcyclopropoxy)-1H-indazol-3-yl]pyrimidin-4-yl}piperazin-1-yl)methyl]cyclohexyl]methyl}piperazin-1-yl)-2,3-dihydro-1H-isoindol-2-yl]piperidine-2,6-dione], under setting [1], the Dmax was at least 70%. In addition, the DC50 (read-out: *Endogenous WT DC50) was under 10 nM.
